# Experimental data as given in patent US7412284B2, “Apparatus for electroporation mediated delivery for drugs and genes” (Genetronics, Inc., priority 1997, dated 2008).
# How the values were obtained:
# [1] = tested on: PC-3 (human prostate cell line); test: MedPulser 4 vs 6 needle array in vitro, XTT cell survival; assay type: cell-based; conditions: bleomycin at 2×10^5 M, 20 hours
# Description: Experiments were carried out to compare the efficacy of 6 vs. 4 needle array with MedPulser™ on PC-3 (human prostate cell line) in vitro. Cells were suspended in RPMI media and seeded uniformly at 200,000 cells/ml. Bleomycin at […] was added to the wells (for D+E− and D+E+ only). Cells were electroporated in 24 well plates using the 6-needle and 4-needle array electrodes connected to the MedPulser. The electropulse parameters were 6×99 μs, 1129 V with the 6-needle array and 4×99 μs, 848 V with the 4-needle array. The cells were transferred to 96 well plates and incubated for 20 hours at 37° C. The cell survival was determined using XTT assay which is based on metabolic conversion of XTT to formazan and is measured spectrophotometrically at 450 nm. Only the cells which are live convert XTT to formazan. The percent cell survival values are relative values calculated from the O.D. values of the sample, a control with 100% cell survival (D−E−) and control with 0% cell survival (D−E− with SDS, which lyses all cells).
# [2] = tested on: non-small cell lung cancer cell line (NSCLC), 177; test: EPT with bleomycin of NSCLC xenografts in nude mice; assay type: in vivo
# [3] = tested on: Human pancreatic xenograft (Panc-4); test: EPT using MedPulser and bleomycin, Panc-4 xenograft; assay type: in vivo, nude mice; conditions: up to day 39 of observation
# Text: Preliminary experiments using MedPulser™ (apparatus of the invention) for treatment of tumor xenografts grown subcutaneously onto nude mice have shown encouraging results. […] Treatment of human prostate xenografts (PC-3) has also shown about 66% complete regression of tumors. (No tumors observed up to 60 days after treatment). Both 4 and 6 needle array are effective in treatment of tumors by EPT.
# [4] = cited from earlier work
# [5] = tested on: basal cell carcinomas and melanomas; test: Clinical trials of bleomycin-EPT for basal cell carcinomas and melanomas; assay type: in vivo, humans; conditions: for % RESPONSE CR D′D / % RESPONSE CR D′E′ / TUMOR RESPONSE CR D′D / TUMOR RESPONSE CR D′E′: CR=complete response; for % RESPONSE NE D′D / % RESPONSE NE D′E′ / TUMOR RESPONSE NE D′D / TUMOR RESPONSE NE D′E′: NE=no effect
# Text: The following examples illustrate the use of EPT in cell lines, animals and humans. Example 1 illustrates EPT in poorly differentiated human pancreatic tumors (Panc-3) xenografted subcutaneously on the flank of nude mice. […] Example 4 provides in vitro data for EPT utilizing low voltage (electric field) and long pulse length. The parameters for EPT are described in the examples; for Example 1 and for the head and neck clinical trials, the nominal electric field was 1300 V/cm and 6 pulses for 99-100 μsec, spaced at 1 second intervals. The clinical trials (Example 2) used similar parameters, however the electric field was 1130 V/cm. (Nominal electric field (V/cm) is applied voltage (V) across the needle pairs divided by the distance between the needle pairs (cm).) The Examples illustrate the use of EPT for effectively killing undesired cell populations (e.g., a tumor) in vitro and in vivo.
# The effectiveness of bleomycin-EPT on the tumors was to be assessed by the end of the eight-week period using the same tumor response criteria as employed in Example 1.
# The concentration of bleomycin administered was 5 U/1 mL. The dosages of bleomycin were administered as follows: […]
# [6] = BCC nodules, PR=partial response
# [7] = Mel nodules, PR=partial response
# [8] = Other nodules, PR=partial response
# [9] = Total nodules, PR=partial response
substance,measurement,setting,value
bleomycin,Avg. % Survival,"[1]; D + E + (4N), 4×99 μs, 848 V, 4-needle array",4.78%
same,Avg. % Survival,"[1]; D + E + (6N), 6×99 μs, 1129 V, 6-needle array",−4.12%
same,Avg. % Survival,"[1]; D + E −, no pulse",27.71%
same,EPT treatment result,"[2]; bleomycin + EPT, NSCLC xenograft",very encouraging results
same,tumor after retreatment,"[2]; recurred tumor retreated at day 27, after 7 days",no evidence of tumor
same,mice with complete tumor regression,[3],about 75%
same,log P (P being the partition coefficient between octanol and water),[4],very negative
same,% RESPONSE CR D′D,[5]; BCC nodules,0%
same,% RESPONSE CR D′E′,[5]; BCC nodules,98%
same,TUMOR RESPONSE CR D′D,[5]; BCC nodules,0/6
same,TUMOR RESPONSE CR D′E′,[5]; BCC nodules,43/44
same,% RESPONSE NE D′D,[5]; BCC nodules,83%
same,% RESPONSE NE D′E′,[5]; BCC nodules,0%
same,TUMOR RESPONSE NE D′D,[5]; BCC nodules,5/6
same,TUMOR RESPONSE NE D′E′,"[5]; BCC nodules, less than 50% reduction in tumor volume",0/44
same,TUMOR RESPONSE PR D′E′,"[5]; BCC nodules, PR=50% or greater reduction in tumor volume",1/44
same,% RESPONSE PR D′D,[5]; [6],17%
same,% RESPONSE PR D′E′,[5]; [6],2%
same,TUMOR RESPONSE PR D′D,[5]; [6],1/6
same,% RESPONSE CR D′D,[5]; Mel nodules,0%
same,% RESPONSE CR D′E′,[5]; Mel nodules,91%
same,TUMOR RESPONSE CR D′D,[5]; Mel nodules,0/5
same,TUMOR RESPONSE CR D′E′,[5]; Mel nodules,53/58
same,% RESPONSE NE D′D,[5]; Mel nodules,100%
same,% RESPONSE NE D′E′,[5]; Mel nodules,2%
same,TUMOR RESPONSE NE D′D,[5]; Mel nodules,5/5
same,TUMOR RESPONSE NE D′E′,[5]; Mel nodules,1/58
same,% RESPONSE PR D′D,[5]; [7],0%
same,% RESPONSE PR D′E′,[5]; [7],7%
same,TUMOR RESPONSE PR D′D,[5]; [7],0/5
same,TUMOR RESPONSE PR D′E′,[5]; [7],4/58
same,% RESPONSE CR D′D,[5]; Other nodules,0%
same,% RESPONSE CR D′E′,[5]; Other nodules,80%
same,TUMOR RESPONSE CR D′D,[5]; Other nodules,0/3
same,TUMOR RESPONSE CR D′E′,[5]; Other nodules,4/5
same,% RESPONSE NE D′D,[5]; Other nodules,100%
same,% RESPONSE NE D′E′,[5]; Other nodules,0%
same,TUMOR RESPONSE NE D′D,[5]; Other nodules,3/3
same,TUMOR RESPONSE NE D′E′,[5]; Other nodules,0/5
same,% RESPONSE PR D′D,[5]; [8],0%
same,% RESPONSE PR D′E′,[5]; [8],20%
same,TUMOR RESPONSE PR D′D,[5]; [8],0/3
same,TUMOR RESPONSE PR D′E′,[5]; [8],1/5
same,% RESPONSE CR D′D,[5]; Total nodules,0%
same,% RESPONSE CR D′E′,[5]; Total nodules,93%
same,TUMOR RESPONSE CR D′D,[5]; Total nodules,0/14
same,TUMOR RESPONSE CR D′E′,[5]; Total nodules,100/107
same,% RESPONSE NE D′D,[5]; Total nodules,93%
same,% RESPONSE NE D′E′,[5]; Total nodules,1%
same,TUMOR RESPONSE NE D′D,[5]; Total nodules,13/14
same,TUMOR RESPONSE NE D′E′,[5]; Total nodules,1/107
same,% RESPONSE PR D′D,[5]; [9],7%
same,% RESPONSE PR D′E′,[5]; [9],6%
same,TUMOR RESPONSE PR D′D,[5]; [9],1/14
same,TUMOR RESPONSE PR D′E′,[5]; [9],6/107
